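Step 1: Grow cells in 96-well plates. Step 2: Expose to compound for 48 hours at 5 concentrations. Step 3: Interpolate endpoints linearly; if unreached, use highest concentration. GI50 = concentration required for 50% inhibition of growth. TGI is the concentration that stops growth completely.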
Columns and labels:
Experiment in all cases: growth of human tumour cells (NCI), 48 h
786-0 renal = test system: 786-0 renal
A498 renal = test system: A498 renal
A549 NSCLC = test system: A549 NSCLC
ACHN renal = test system: ACHN renal
CAKI-1 renal = test system: CAKI-1 renal
CCRF-CEM leukemia = test system: CCRF-CEM leukemia
DLD-1 colon = test system: DLD-1 colon
DMS 114 small cell lung = test system: DMS 114 small cell lung
DMS 273 small cell lung = test system: DMS 273 small cell lung
EKVX NSCLC = test system: EKVX NSCLC
HCC-2998 colon = test system: HCC-2998 colon
HCT-116 colon = test system: HCT-116 colon
HCT-15 colon = test system: HCT-15 colon
HL-60(TB) leukemia = test system: HL-60(TB) leukemia
HOP-62 NSCLC = test system: HOP-62 NSCLC
HT29 colon = test system: HT29 colon
IGROV1 ovarian = test system: IGROV1 ovarian
K-562 leukemia = test system: K-562 leukemia
KM12 colon = test system: KM12 colon
KM20L2 colon = test system: KM20L2 colon
LOX IMVI melanoma = test system: LOX IMVI melanoma
LXFL 529 NSCLC = test system: LXFL 529 NSCLC
M14 melanoma = test system: M14 melanoma
M19-MEL melanoma = test system: M19-MEL melanoma
MALME-3M melanoma = test system: MALME-3M melanoma
MOLT-4 leukemia = test system: MOLT-4 leukemia
NCI-H226 lung = test system: NCI-H226 lung
NCI-H23 lung = test system: NCI-H23 lung
NCI-H460 lung = test system: NCI-H460 lung
NCI-H522 lung = test system: NCI-H522 lung
OVCAR-3 ovarian = test system: OVCAR-3 ovarian
OVCAR-4 ovarian = test system: OVCAR-4 ovarian
OVCAR-8 ovarian = test system: OVCAR-8 ovarian
RPMI-8226 leukemia = test system: RPMI-8226 leukemia
RXF 393 renal = test system: RXF 393 renal
SF-268 CNS = test system: SF-268 CNS
SF-295 CNS = test system: SF-295 CNS
SF-539 CNS = test system: SF-539 CNS
SK-MEL-2 melanoma = test system: SK-MEL-2 melanoma
SK-MEL-28 melanoma = test system: SK-MEL-28 melanoma
SK-MEL-5 melanoma = test system: SK-MEL-5 melanoma
SK-OV-3 ovarian = test system: SK-OV-3 ovarian
SN12C renal = test system: SN12C renal
SNB-19 CNS = test system: SNB-19 CNS
SNB-75 CNS = test system: SNB-75 CNS
SW-620 colon = test system: SW-620 colon
U251 CNS = test system: U251 CNS
UACC-257 melanoma = test system: UACC-257 melanoma
UACC-62 melanoma = test system: UACC-62 melanoma
UO-31 renal = test system: UO-31 renal

`O=C(/C=C/c1ccc(Cl)cc1)c1ccc(Cl)c(Cl)c1` was tested, and the TGI (786-0 renal) was over 100 µM, the TGI (A498 renal) was over 100 µM and the TGI (A549 NSCLC) was over 100 µM. It also gave a TGI (ACHN renal) of over 100 µM, a TGI (CAKI-1 renal) of 53.1 µM and a TGI (CCRF-CEM leukemia) of 50.5 µM. For the same compound, the TGI (DLD-1 colon) was over 100 µM, the TGI (DMS 114 small cell lung) was over 100 µM and the TGI (DMS 273 small cell lung) was over 100 µM. The TGI (EKVX NSCLC) was 87.2 µM, the TGI (HCC-2998 colon) was over 100 µM and the TGI (HCT-116 colon) was over 100 µM. For the same compound, the TGI (HCT-15 colon) was over 100 µM, the GI50 (HL-60(TB) leukemia) was 15.9 µM and the TGI (HL-60(TB) leukemia) was 45.8 µM. It also gave a TGI (HOP-62 NSCLC) of 53.9 µM, a TGI (HT29 colon) of over 100 µM and a TGI (IGROV1 ovarian) of 79.9 µM. For the same compound, the TGI (K-562 leukemia) was over 100 µM, the GI50 (KM12 colon) was 12.2 µM and the TGI (KM12 colon) was over 100 µM. For the same compound, the TGI (KM20L2 colon) was over 100 µM, the TGI (LOX IMVI melanoma) was over 100 µM and the TGI (LXFL 529 NSCLC) was 92.5 µM. For the same compound, the TGI (M14 melanoma) was over 100 µM, the TGI (M19-MEL melanoma) was over 100 µM and the TGI (MALME-3M melanoma) was 62.4 µM. For the same compound, the TGI (MOLT-4 leukemia) was 69.6 µM, the TGI (NCI-H226 lung) was 34.9 µM and the TGI (NCI-H23 lung) was 30.2 µM. It also gave a TGI (NCI-H460 lung) of over 100 µM, a TGI (NCI-H522 lung) of 42.9 µM and a TGI (OVCAR-3 ovarian) of 48.3 µM. For the same compound, the TGI (OVCAR-4 ovarian) was over 100 µM, the TGI (OVCAR-8 ovarian) was 47.9 µM and the TGI (RPMI-8226 leukemia) was 8.88 µM. The TGI (RXF 393 renal) was 72.2 µM, the TGI (SF-268 CNS) was over 100 µM and the TGI (SF-295 CNS) was over 100 µM. It also gave a TGI (SF-539 CNS) of 56.9 µM, a TGI (SK-MEL-2 melanoma) of 47.8 µM and a TGI (SK-MEL-28 melanoma) of 66.7 µM. It also gave a TGI (SK-MEL-5 melanoma) of 68.7 µM, a TGI (SK-OV-3 ovarian) of 85.9 µM and a GI50 (SN12C renal) of 48 µM. For the same compound, the TGI (SN12C renal) was over 100 µM, the TGI (SNB-19 CNS) was 75.5 µM and the TGI (SNB-75 CNS) was 61.5 µM. The GI50 (SW-620 colon) was 19.6 µM, the TGI (SW-620 colon) was over 100 µM and the TGI (U251 CNS) was 44.5 µM. The TGI (UACC-257 melanoma) was 98.8 µM, the TGI (UACC-62 melanoma) was 70 µM and the TGI (UO-31 renal) was 80.9 µM.

Source: PubChem BioAssay (NCI)
